Experimental data published in ChEMBL document CHEMBL1201862, “PubChem BioAssay data set” (2004).
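Five compound concentrations were applied to cells in 96-well plates for 48 hours; endpoints were derived by simple linear interpolation of the resulting dose-response curve. The concentration for 50% growth inhibition is given as GI50.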 Activity calls are given as the source filed them. No stated cut-off is given here; in the data, active = GI50 up to about 1.1 µM and inactive = higher.

Legend:
Experiment in all cases: DTP human tumour cell line panel, 48 h
SK-MEL-2 = tested on: SK-MEL-2
ACHN = tested on: ACHN
CCRF-CEM = tested on: CCRF-CEM
KM12 = tested on: KM12
U-251 = tested on: U-251
OVCAR-8 = tested on: OVCAR-8
SK-MEL-5 = tested on: SK-MEL-5
Malme-3M = tested on: Malme-3M
HL-60 = tested on: HL-60
EKVX = tested on: EKVX
IGROV-1 = tested on: IGROV-1
HOP-92 = tested on: HOP-92
NCI-H522 = tested on: NCI-H522
786-0 = tested on: 786-0
HOP-62 = tested on: HOP-62
HT-29 = tested on: HT-29
SNB-75 = tested on: SNB-75
COLO 205 = tested on: COLO 205

Compound | GI50 (SK-MEL-2) | GI50 (ACHN) | GI50 (CCRF-CEM) | GI50 (KM12) | GI50 (U-251) | GI50 (OVCAR-8) | GI50 (SK-MEL-5) | GI50 (Malme-3M) | GI50 (HL-60) | GI50 (EKVX) | GI50 (IGROV-1) | GI50 (HOP-92) | GI50 (NCI-H522) | GI50 (786-0) | GI50 (HOP-62) | GI50 (HT-29) | GI50 (SNB-75) | GI50 (COLO 205)
O=c1[nH]c(=O)n(C2CC(O)C(CO)O2)cc1/C=C/Br (stereo unspecified) | > 100 µM (inactive) | > 100 µM (inactive) | > 100 µM (inactive) | > 100 µM (inactive) | > 100 µM (inactive) | > 100 µM (inactive) | > 100 µM (inactive) | > 100 µM (inactive) | > 100 µM (inactive) | > 100 µM (inactive) | > 100 µM (inactive) | > 100 µM (inactive) | > 100 µM (inactive) | > 100 µM (inactive) | > 100 µM (inactive) | > 100 µM (inactive) | – | –
COc1nc(NC2OC(COC(C)=O)C(OC(C)=O)C(OC(C)=O)C2OC(C)=O)c(/N=C(\C)C(C)=O)c(=O)n1C (stereo unspecified) | > 100 µM (inactive) | > 100 µM (inactive) | > 100 µM (inactive) | > 100 µM (inactive) | > 100 µM (inactive) | > 100 µM (inactive) | > 100 µM (inactive) | > 100 µM (inactive) | > 100 µM (inactive) | > 100 µM (inactive) | > 100 µM (inactive) | > 100 µM (inactive) | – | > 100 µM (inactive) | > 100 µM (inactive) | > 100 µM (inactive) | > 100 µM (inactive) | > 100 µM (inactive)
CSc1c(C)c(C)nn1-c1ccccc1 | > 100 µM (inactive) | > 100 µM (inactive) | > 100 µM (inactive) | > 100 µM (inactive) | > 100 µM (inactive) | > 100 µM (inactive) | > 100 µM (inactive) | > 100 µM (inactive) | 81.1 µM (inactive) | > 100 µM (inactive) | > 100 µM (inactive) | – | > 100 µM (inactive) | > 100 µM (inactive) | – | > 100 µM (inactive) | 58.2 µM (inactive) | > 100 µM (inactive)
CC(C)(c1cn(Cc2ccccc2)c2ccccc12)c1cn(Cc2ccccc2)c2ccccc12 | – | > 100 µM (inactive) | > 100 µM (inactive) | > 100 µM (inactive) | > 100 µM (inactive) | > 100 µM (inactive) | > 100 µM (inactive) | 1.94 µM (inactive) | > 100 µM (inactive) | > 100 µM (inactive) | > 100 µM (inactive) | 32.2 µM (inactive) | 76.9 µM (inactive) | > 100 µM (inactive) | > 100 µM (inactive) | > 100 µM (inactive) | 17.3 µM (inactive) | > 100 µM (inactive)
O=C(Cc1nc2ccccc2s1)Nc1ccc(Cl)cc1 | 88.9 µM (inactive) | 56.5 µM (inactive) | > 100 µM (inactive) | 78.5 µM (inactive) | > 100 µM (inactive) | > 100 µM (inactive) | 83.8 µM (inactive) | > 100 µM (inactive) | > 100 µM (inactive) | > 100 µM (inactive) | > 100 µM (inactive) | – | > 100 µM (inactive) | > 100 µM (inactive) | > 100 µM (inactive) | > 100 µM (inactive) | 91.6 µM (inactive) | > 100 µM (inactive)
CC(C)(C)OC1=C(OC(C)(C)C)C(O)(c2ccccc2)C1=O (stereo unspecified) | – | > 100 µM (inactive) | > 100 µM (inactive) | > 100 µM (inactive) | > 100 µM (inactive) | > 100 µM (inactive) | > 100 µM (inactive) | > 100 µM (inactive) | > 100 µM (inactive) | > 100 µM (inactive) | > 100 µM (inactive) | – | – | > 100 µM (inactive) | – | > 100 µM (inactive) | > 100 µM (inactive) | > 100 µM (inactive)
COC(=O)C1=C(C(=O)OC)C2(C3C(SC)=CC(C)(C)CC3S1)N(Cc1ccccc1)CCN2Cc1ccccc1 (stereo unspecified) | > 100 µM (inactive) | 48.2 µM (inactive) | > 100 µM (inactive) | > 100 µM (inactive) | > 100 µM (inactive) | > 100 µM (inactive) | 65.5 µM (inactive) | > 100 µM (inactive) | – | > 100 µM (inactive) | > 100 µM (inactive) | < 0.01 µM (active) | > 100 µM (inactive) | > 100 µM (inactive) | > 100 µM (inactive) | > 100 µM (inactive) | > 100 µM (inactive) | > 100 µM (inactive)
CCCCCCCCCCCC(=O)C1=C(O)CC(O)CC1=O (stereo unspecified) | > 100 µM (inactive) | 99.8 µM (inactive) | 62.2 µM (inactive) | 59.4 µM (inactive) | 91.8 µM (inactive) | 74.1 µM (inactive) | > 100 µM (inactive) | – | 23.1 µM (inactive) | > 100 µM (inactive) | > 100 µM (inactive) | > 100 µM (inactive) | > 100 µM (inactive) | > 100 µM (inactive) | > 100 µM (inactive) | > 100 µM (inactive) | > 100 µM (inactive) | > 100 µM (inactive)
CC(=O)c1c2c(cc3c1CC1(C3)Cc3cc4c(c(C(C)=O)c3C1)CCC4)CCC2 | – | > 100 µM (inactive) | > 100 µM (inactive) | > 100 µM (inactive) | > 100 µM (inactive) | > 100 µM (inactive) | > 100 µM (inactive) | 40.3 µM (inactive) | 19.3 µM (inactive) | – | > 100 µM (inactive) | > 100 µM (inactive) | > 100 µM (inactive) | > 100 µM (inactive) | > 100 µM (inactive) | > 100 µM (inactive) | 82.4 µM (inactive) | > 100 µM (inactive)
O=c1cc2ccccc2nn1Cc1cccc(Cl)c1 | > 100 µM (inactive) | > 100 µM (inactive) | 71.1 µM (inactive) | > 100 µM (inactive) | > 100 µM (inactive) | 73.3 µM (inactive) | 37.8 µM (inactive) | > 100 µM (inactive) | – | > 100 µM (inactive) | > 100 µM (inactive) | > 100 µM (inactive) | – | > 100 µM (inactive) | > 100 µM (inactive) | > 100 µM (inactive) | 32.7 µM (inactive) | > 100 µM (inactive)
Cc1ccc(S(=O)(=O)C(CC(=O)N2CCCC2)C(=O)c2ccccc2)cc1 (stereo unspecified) | – | > 100 µM (inactive) | 24.6 µM (inactive) | > 100 µM (inactive) | > 100 µM (inactive) | > 100 µM (inactive) | > 100 µM (inactive) | > 100 µM (inactive) | 19.5 µM (inactive) | – | > 100 µM (inactive) | > 100 µM (inactive) | 89.3 µM (inactive) | > 100 µM (inactive) | > 100 µM (inactive) | > 100 µM (inactive) | 80.2 µM (inactive) | > 100 µM (inactive)
Nc1ncnc2sc(Nc3ccccc3)nc12 | > 100 µM (inactive) | 12.3 µM (inactive) | – | > 100 µM (inactive) | 56.6 µM (inactive) | > 100 µM (inactive) | – | > 100 µM (inactive) | 2.54 µM (inactive) | – | 32.2 µM (inactive) | 77.1 µM (inactive) | 28 µM (inactive) | 26.5 µM (inactive) | 81.7 µM (inactive) | 7.28 µM (inactive) | 29.6 µM (inactive) | > 100 µM (inactive)
CC(SC(=O)Nc1ccc(/N=N/c2ccccc2)cc1)C(=O)O (stereo unspecified) | > 100 µM (inactive) | 57.9 µM (inactive) | 36 µM (inactive) | 54.3 µM (inactive) | > 100 µM (inactive) | 57 µM (inactive) | – | – | 38.6 µM (inactive) | > 100 µM (inactive) | 24.3 µM (inactive) | – | 68.4 µM (inactive) | 79.8 µM (inactive) | > 100 µM (inactive) | 68.4 µM (inactive) | 6.4 µM (inactive) | > 100 µM (inactive)
CN(C)c1ccc(/C=c2/sc3nc(=O)c(-c4ccccc4NC(=O)C(F)(F)F)nn3c2=O)cc1 | > 100 µM (inactive) | > 100 µM (inactive) | > 100 µM (inactive) | > 100 µM (inactive) | 53.3 µM (inactive) | > 100 µM (inactive) | > 100 µM (inactive) | > 100 µM (inactive) | – | > 100 µM (inactive) | > 100 µM (inactive) | 77.4 µM (inactive) | > 100 µM (inactive) | > 100 µM (inactive) | > 100 µM (inactive) | > 100 µM (inactive) | > 100 µM (inactive) | 98.6 µM (inactive)
CC(C)(C)c1cc2nc(c1)C(C(F)(F)F)(C(F)(F)F)OB(Br)OC2(C(F)(F)F)C(F)(F)F | 1.47 µM (inactive) | – | < 0.01 µM (active) | < 0.01 µM (active) | 0.084 µM (active) | < 0.01 µM (active) | – | 0.617 µM (active) | – | < 0.01 µM (active) | 0.0269 µM (active) | – | – | 0.115 µM (active) | 0.0367 µM (active) | 0.156 µM (active) | 3.56 µM (inactive) | < 0.01 µM (active)
CC1CCC2CC(=O)OC([C@@H]3C(=O)O[C@@H](C4=CCCC4)C4C(C)CCC43)C12 (stereo partly specified) | > 100 µM (inactive) | 61.4 µM (inactive) | 34.8 µM (inactive) | 42 µM (inactive) | 48.6 µM (inactive) | 68.5 µM (inactive) | 97.7 µM (inactive) | > 100 µM (inactive) | 23.1 µM (inactive) | > 100 µM (inactive) | 80.2 µM (inactive) | – | 51.3 µM (inactive) | > 100 µM (inactive) | > 100 µM (inactive) | 61 µM (inactive) | > 100 µM (inactive) | 32.4 µM (inactive)
Cc1c2cc[n+](C)cc2c(C)c2c1[nH]c1ccc(OCC(F)(F)F)cc12 | 3.4 µM (inactive) | – | 4.16 µM (inactive) | 2.53 µM (inactive) | 0.256 µM (active) | 0.798 µM (active) | 1.55 µM (inactive) | 2.02 µM (inactive) | – | 15 µM (inactive) | 2.27 µM (inactive) | 2.43 µM (inactive) | 1.63 µM (inactive) | 0.378 µM (active) | 0.789 µM (active) | 2.28 µM (inactive) | – | 1.46 µM (inactive)
